In article PMC12615753, “Glutathione as a taste modulator: molecular mechanisms of interaction with umami and sweet taste receptors” (Food Chemistry: Molecular Sciences, 2025):

Tests used:
hTAS1R1 H71Y/rTAS1R3 = target: T1, hTAS1R1 H71Y/rTAS1R3 (UniProt Q7RTX1+Q923K1, H71Y); assay: cell-based; format: cell-based, human, rat
T1 construct: UniProtKB number Q7RTX1–1); The cDNA coding region of rTAS1R3 was synthesized with optimized-codon usage for human expression; expressed in transfected cells; host or cells: HEK293T/17
T1 sequence (Q7RTX1 21-841 H71Y): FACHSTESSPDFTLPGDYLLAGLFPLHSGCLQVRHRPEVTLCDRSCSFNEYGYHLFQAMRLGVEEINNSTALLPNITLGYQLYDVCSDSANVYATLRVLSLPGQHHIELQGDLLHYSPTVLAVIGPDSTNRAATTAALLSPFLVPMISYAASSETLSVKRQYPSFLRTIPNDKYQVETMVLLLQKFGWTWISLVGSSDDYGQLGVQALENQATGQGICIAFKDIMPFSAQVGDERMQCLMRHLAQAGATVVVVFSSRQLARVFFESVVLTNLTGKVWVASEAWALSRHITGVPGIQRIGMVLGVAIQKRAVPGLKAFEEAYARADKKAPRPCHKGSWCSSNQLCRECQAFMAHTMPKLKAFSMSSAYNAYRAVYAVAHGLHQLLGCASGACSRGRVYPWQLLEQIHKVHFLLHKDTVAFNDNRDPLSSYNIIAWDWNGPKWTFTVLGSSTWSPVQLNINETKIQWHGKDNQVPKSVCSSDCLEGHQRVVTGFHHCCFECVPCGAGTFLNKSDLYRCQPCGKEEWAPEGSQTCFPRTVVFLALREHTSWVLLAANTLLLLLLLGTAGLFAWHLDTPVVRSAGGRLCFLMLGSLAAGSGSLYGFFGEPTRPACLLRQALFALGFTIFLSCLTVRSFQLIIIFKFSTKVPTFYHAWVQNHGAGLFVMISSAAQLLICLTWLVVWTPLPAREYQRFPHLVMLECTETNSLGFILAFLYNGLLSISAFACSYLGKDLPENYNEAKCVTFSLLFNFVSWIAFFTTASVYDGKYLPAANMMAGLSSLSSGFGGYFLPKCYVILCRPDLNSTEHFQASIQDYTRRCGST
T1 sequence (Q923K1 21-858): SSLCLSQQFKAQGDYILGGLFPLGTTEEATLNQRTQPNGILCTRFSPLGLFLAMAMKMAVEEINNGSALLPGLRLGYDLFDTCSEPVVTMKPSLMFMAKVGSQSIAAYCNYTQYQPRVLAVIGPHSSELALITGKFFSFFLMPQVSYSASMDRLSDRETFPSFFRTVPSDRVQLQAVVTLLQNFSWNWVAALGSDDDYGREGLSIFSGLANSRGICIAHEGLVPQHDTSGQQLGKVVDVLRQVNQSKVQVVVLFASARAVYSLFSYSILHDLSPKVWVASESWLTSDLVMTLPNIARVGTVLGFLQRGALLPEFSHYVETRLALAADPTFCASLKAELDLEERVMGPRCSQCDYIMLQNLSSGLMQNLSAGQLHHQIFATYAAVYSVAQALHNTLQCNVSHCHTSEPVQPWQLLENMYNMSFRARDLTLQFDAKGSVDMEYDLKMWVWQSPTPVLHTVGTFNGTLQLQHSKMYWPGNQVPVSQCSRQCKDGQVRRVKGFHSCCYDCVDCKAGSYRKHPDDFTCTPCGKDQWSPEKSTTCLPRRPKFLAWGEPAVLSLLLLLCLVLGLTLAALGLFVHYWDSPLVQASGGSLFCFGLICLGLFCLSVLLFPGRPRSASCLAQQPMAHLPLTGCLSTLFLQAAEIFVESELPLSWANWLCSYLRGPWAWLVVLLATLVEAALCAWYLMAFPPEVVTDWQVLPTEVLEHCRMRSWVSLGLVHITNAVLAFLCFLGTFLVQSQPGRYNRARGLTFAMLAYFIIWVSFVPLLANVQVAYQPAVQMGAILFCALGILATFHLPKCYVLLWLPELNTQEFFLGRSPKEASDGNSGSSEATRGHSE
Source text: Chimeric Gα proteins, such as Gα16Gust44, Gα16Gi3 or Gα15i2, are widely used in the functional expression of TAS1R receptors ([Backes et al., 2015]; [Suess et al., 2015]; [Toda et al., 2021], [Toda et al., 2013], [Toda et al., 2018]; [Zhang et al., 2008]). Chimeric Gα15i2 (([Toda et al., 2013]), Supplementary data) was generated by replacing the last five residues of the C-terminal tail of rat Gα15i2 (EINLL) (UniProt number G3V6N8; https://www.uniprot.org/uniprot/) with the counterpart sequence from human GNAI2 (DCGLF) (UniProt number P04899-1) and cloning into the pcDNA3.1/Hygro vector (Invitrogen, Thermo Fisher Scientific, Illkirch, France) between the HindIII and NotI restriction sites, resulting in the plasmid pcDNA3.1-Gα15i2. Chimeric Gα16Gust44 construct have already been reported ([Raliou et al., 2011]). Briefly, Gα16Gust44 was generated by replacing the C-terminal of Gα16 with the C-terminal 44 residues of gustducin. As previously described, hTAS1R1 was amplified from human fungiform papillae cDNA and cloned and inserted into pcDNA3 (Invitrogen), generating pcDNA3-TAS1R1-WT (wild-type) ([Raliou et al., 2011]). […] The cDNA coding region of rTAS1R3 was synthesized with optimized-codon usage for human expression (Genewiz) and was cloned and inserted into the mammalian pcDNA4/myc-HisA (Invitrogen) expression vector between the EcoRI and NotI restriction sites, resulting in the plasmid pcDNA4-rTAS1R3. […] The sequence integrity of all the plasmid constructs was verified via automated DNA sequencing (Genewiz).
The hTAS1R1 mutants were co-expressed with the rTAS1R3 subunit in HEK293 cells. […] As a control, the functionality of the mutated receptors was checked after stimulation with S807 (Fig. S8), which interacts with TAS1R1-TMD ([Zhang et al., 2008]).

rTAS1R3 = rTAS1R3 (Rattus norvegicus, UniProt Q923K1); details: GSH alone; Fig. 5C
Protocol: HEK293T/17 cells (ATCC CRL-11268) were seeded into clear bottom black 96-well plates coated with poly-D-lysine at a density of 32500 cells/well in 100 μL of DMEM containing 4.5 g/L glucose and supplemented with penicillin/streptomycin, 2 mM GlutaMAX and 10 % dialyzed fetal bovine serum. The plates were incubated for 24 h at 37 °C and 7.3 % CO2 in a humidified atmosphere. After incubation, using Fugene® 4 K (0.46 μL/well, Promega, Illkirch, France), the cells were transiently transfected with pcDNA3-hTAS1R1-WT (60 ng/well) or TAS1R1 mutants, pcDNA4-rTAS1R3 (60 ng/well), pcDNA3-Gα15i2 (10 ng/well), and pGP-CMV-GCaMP6s (Addgene #40753; 10 ng/well) as a genetically encoded calcium indicator. […] After 20 s of basal fluorescence calcium measurement, the cells were stimulated via automatic injection of a range of compounds in eight wells, and the signal emission was recorded for an additional 70 s, via a FlexStation 3® fluorometric microplate reader (Molecular Devices, San Jose, CA, USA). […] The emitted fluorescence was measured at a wavelength of 510 nm after excitation at 488 nm. […] For each well, the decrease in the raw fluorescence as the relative fluorescence changed was calculated as ΔF/F0. Replicates were averaged for the wells subjected to the same stimuli, the background signal was subtracted, and the fluorescence changes in mock-transfected cells were subtracted. […]

Compound: N[C@@H](CCC(=O)N[C@@H](CS)C(=O)NCC(=O)O)C(=O)O [GSH, γ-L-glutamyl-L-cysteinyl-glycine]
- EC50 (hTAS1R1 H71Y/rTAS1R3): 12.4 mM
- effect of the added compound (1 mM) on the response to L-Glu (hTAS1R1 H71Y/rTAS1R3; H71Y): did not affect
- Max ∆F/F0 (hTAS1R1 H71Y/rTAS1R3; H71Y, GSH): 0.65 ± 0.11
- R1 = mutant EC50/WT EC50 (hTAS1R1 H71Y/rTAS1R3; H71Y, GSH): 4.9
- response of transfected cells (rTAS1R3): did not respond
